Where a name gives a salt, the structure may show the parent alone.
test system: human primary T-cells, IL-2 stimulated proliferation (JAK-1 and JAK-3 dependent; reported as JAK3 activity); assay: Human primary T-cell proliferation stimulated by IL-2 (Example 3); type: cell-based; settings: Homo sapiens, T-cell, tested under conditions described in Example 3 (IL-2 stimulated human primary T-cell proliferation); read-out: ability to inhibit JAK3 activity, IC50 range (Table V)
Method in brief: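 Peripheral-blood human T-cells pre-activated via TCR/CD28, IL-2-starved overnight, then cultured 72 h at 37 °C with compound in Yssel's medium containing IL-2 (80 U/mL in cell suspension). Proliferation read as viable-cell ATP by CellTiter-Glo luminescence; reduction versus control taken as JAK pathway inhibition.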

Cc1cnc(Nc2cc(C)c(C)c(C)c2)nc1Nc1cc(F)c2oc(=O)[nH]c2c1 [Compound I-489, 7-fluoro-5-(5-methyl-2-(3,4,5-trimethylphenylamino)pyrimidin-4-ylamino)benzo[d]oxazol-2(3H)-one] and Cc1cnc(Nc2cc(C)c(F)c(C)c2)nc1Nc1cc(F)c2oc(=O)[nH]c2c1 [Compound I-490, 7-fluoro-5-(2-(4-fluoro-3,5-dimethylphenylamino)-5-methylpyrimidin-4-ylamino)benzo[d]oxazol-2(3H)-one] cannot be ordered by IC50: < 500 nM for the first, < 500 nM for the second.

COc1cc(Nc2ncc(C)c(Nc3cc(C)c4oc(=O)[nH]c4c3)n2)cc(C)c1F [Compound I-491, 5-(2-(4-fluoro-3-methoxy-5-methylphenylamino)-5-methylpyrimidin-4-ylamino)-7-methylbenzo[d]oxazol-2(3H)-one] and COc1cc(Nc2ncc(C)c(Nc3cc(F)c4oc(=O)[nH]c4c3)n2)cc(C)c1F [Compound I-492, 7-fluoro-5-(2-(4-fluoro-3-methoxy-5-methylphenylamino)-5-methylpyrimidin-4-ylamino)benzo[d]oxazol-2(3H)-one] cannot be ordered by IC50: < 500 nM for the first, < 500 nM for the second.

Compared with COc1cc(Nc2ncc(C)c(Nc3ccc4oc(=O)[nH]c4c3)n2)ccc1-c1ccncc1 [Compound I-494, 5-(2-(3-methoxy-4-(pyridin-4-yl)phenylamino)-5-methylpyrimidin-4-ylamino)benzo[d]oxazol-2(3H)-one formate salt], COc1ccc(Nc2ncc(C)c(Nc3ccc4oc(=O)[nH]c4c3)n2)cc1Cl [Compound I-496, 5-[2-(3-Chloro-4-methoxy-phenylamino)-5-methyl-pyrimidin-4-ylamino]-3H-benzooxazol-2-one] is lower in IC50: 500 to 5000 nM for the first, < 500 nM for the second.

Compared with Cc1cnc(Nc2cc(Cl)cc(C(F)(F)F)c2)nc1Nc1ccc2oc(=O)[nH]c2c1 [Compound I-497, 5-[2-(3-Chloro-5-trifluoromethyl-phenylamino)-5-methyl-pyrimidin-4-ylamino]-3H-benzooxazol-2-one], COc1ccc(C(F)(F)F)cc1Nc1ncc(C)c(Nc2ccc3oc(=O)[nH]c3c2)n1 [Compound I-498, 5-[2-(2-Methoxy-5-trifluoromethyl-phenylamino)-5-methyl-pyrimidin-4-ylamino]-3H-benzooxazol-2-one] is lower in IC50: > 10000 nM for the first, 500 to 5000 nM for the second. The second is the more potent here.

Cc1ccccc1Nc1ncc(C)c(Nc2ccc3oc(=O)[nH]c3c2)n1 [Compound I-499, 5-(2-(o-toluidino)-5-methylpyrimidin-4-ylamino)benzo[d]oxazol-2(3H)-one] and CCc1ccccc1Nc1ncc(C)c(Nc2ccc3oc(=O)[nH]c3c2)n1 [Compound I-502, 5-(2-(2-ethylphenylamino)-5-methylpyrimidin-4-ylamino)benzo[d]oxazol-2(3H)-one] fall in the same range of IC50: 500 to 5000 nM for the first, 500 to 5000 nM for the second.

Cc1cnc(Nc2cccc(C)c2C)nc1Nc1ccc2oc(=O)[nH]c2c1 [Compound I-500, 5-(2-(2,3-dimethylphenylamino)-5-methylpyrimidin-4-ylamino)benzo[d]oxazol-2(3H)-one] and Cc1ccc(C)c(Nc2ncc(C)c(Nc3ccc4oc(=O)[nH]c4c3)n2)c1 [Compound I-501, 5-(2-(2,5-dimethylphenylamino)-5-methylpyrimidin-4-ylamino)benzo[d]oxazol-2(3H)-one] fall in the same range of IC50: 500 to 5000 nM for the first, 500 to 5000 nM for the second.

CCc1cccc(Nc2ncc(C)c(Nc3ccc4oc(=O)[nH]c4c3)n2)c1 [Compound I-503, 5-(2-(3-ethylphenylamino)-5-methylpyrimidin-4-ylamino)benzo[d]oxazol-2(3H)-one] was tested, and the IC50 was < 500 nM.

same assay, conditions: tested under conditions described in Example 3 (IL-2 stimulated human primary T-cell proliferation); read-out: ability to inhibit JAK3 activity, IC50 range (Table V)

Cc1cnc(Nc2ccc(C)c(C)c2F)nc1Nc1ccc2oc(=O)[nH]c2c1 [Compound I-493, N2-(3,4-dimethyl-2-fluoro)phenyl-5-methyl-N4-(2-oxo-2,3-dihydro-1,3-benzoxazol-5-yl)-2,4-pyrimidinediamine] and Cc1cnc(Nc2cc(Cl)cc(OC(F)F)c2)nc1Nc1ccc2oc(=O)[nH]c2c1 [Compound I-495, N2-(3-chloro-5-difluoromethoxy)phenyl-5-methyl-N4-(2-oxo-2,3-dihydro-1,3-benzoxazol-5-yl)-2,4-pyrimidinediamine] cannot be ordered by IC50: < 500 nM for the first, < 500 nM for the second.
